The values that follow come from patent US20250145606A1 (Arcus Biosciences, Inc., priority 2023, published 2025).

One experiment addresses c-Kit (Homo sapiens (Human), UniProt P10721). Description: Inhibition of c-Kit kinase activity (HTRF KinEASE-TK). As to conditions: biochemical, HTRF KinEASE-TK. Type of experiment: biochemical. An outline of the steps: (§1)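 Human kinases were preincubated 1 h at rt with a 22-point 1:2 compound titration, then run 120 min at rt with biotinylated TK peptide and ATP (2× mix: c-Kit 16 μM, PDGFRα 1 μM, PDGFRβ 40 μM, CSF1R 20 μM). Phosphopeptide was read by HTRF TR-FRET (665/620 nm), and IC50s came from 4-parameter fits.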
On the technique in general: In TR-FRET formats the signal depends on donor and acceptor labels being close together.

The target of a further experiment is PDGFRα (Homo sapiens (Human), UniProt P16234). Put plainly: Inhibition of PDGFRα kinase activity (HTRF KinEASE-TK). As to conditions: biochemical, HTRF KinEASE-TK. The method in brief:
as §1

The target of the next experiment is PDGFRβ (Homo sapiens (Human), UniProt P09619). Put plainly: Inhibition of PDGFRβ kinase activity (HTRF KinEASE-TK). As to conditions: biochemical, HTRF KinEASE-TK. An outline of the steps: as §1
Chain of PDGFRβ (P09619 33-1106): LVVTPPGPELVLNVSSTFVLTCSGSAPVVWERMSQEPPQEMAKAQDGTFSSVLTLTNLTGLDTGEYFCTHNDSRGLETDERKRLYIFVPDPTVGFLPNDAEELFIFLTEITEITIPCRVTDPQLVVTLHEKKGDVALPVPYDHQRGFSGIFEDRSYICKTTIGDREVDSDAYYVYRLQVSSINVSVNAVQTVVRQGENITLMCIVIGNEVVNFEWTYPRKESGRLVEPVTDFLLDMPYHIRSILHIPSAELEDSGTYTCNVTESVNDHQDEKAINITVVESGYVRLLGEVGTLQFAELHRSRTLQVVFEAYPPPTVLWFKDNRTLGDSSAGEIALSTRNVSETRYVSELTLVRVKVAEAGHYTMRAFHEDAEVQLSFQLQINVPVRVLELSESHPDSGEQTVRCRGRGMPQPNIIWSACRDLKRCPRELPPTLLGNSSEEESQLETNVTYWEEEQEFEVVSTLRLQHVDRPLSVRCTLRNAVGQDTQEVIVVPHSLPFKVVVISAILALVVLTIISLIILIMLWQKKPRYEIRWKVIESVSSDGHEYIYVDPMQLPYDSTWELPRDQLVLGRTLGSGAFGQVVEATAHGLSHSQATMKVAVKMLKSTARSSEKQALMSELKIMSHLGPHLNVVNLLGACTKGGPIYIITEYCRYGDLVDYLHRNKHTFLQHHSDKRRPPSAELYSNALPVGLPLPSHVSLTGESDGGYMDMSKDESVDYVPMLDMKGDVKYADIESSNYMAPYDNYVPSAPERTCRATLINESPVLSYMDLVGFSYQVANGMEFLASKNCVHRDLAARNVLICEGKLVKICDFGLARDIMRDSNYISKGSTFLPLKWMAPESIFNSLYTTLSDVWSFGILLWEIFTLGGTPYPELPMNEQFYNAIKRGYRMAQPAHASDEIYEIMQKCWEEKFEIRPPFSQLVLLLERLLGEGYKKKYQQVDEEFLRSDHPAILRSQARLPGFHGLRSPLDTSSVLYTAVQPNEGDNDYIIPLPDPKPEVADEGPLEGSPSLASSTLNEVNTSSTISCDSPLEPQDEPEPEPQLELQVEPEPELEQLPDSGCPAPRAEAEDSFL
The target of a further experiment is CSF1R (Homo sapiens (Human), UniProt P07333). Description: Inhibition of CSF1R kinase activity (HTRF KinEASE-TK). As to conditions: biochemical, HTRF KinEASE-TK. The method in brief: as §1
Chain of CSF1R (P07333 20-972): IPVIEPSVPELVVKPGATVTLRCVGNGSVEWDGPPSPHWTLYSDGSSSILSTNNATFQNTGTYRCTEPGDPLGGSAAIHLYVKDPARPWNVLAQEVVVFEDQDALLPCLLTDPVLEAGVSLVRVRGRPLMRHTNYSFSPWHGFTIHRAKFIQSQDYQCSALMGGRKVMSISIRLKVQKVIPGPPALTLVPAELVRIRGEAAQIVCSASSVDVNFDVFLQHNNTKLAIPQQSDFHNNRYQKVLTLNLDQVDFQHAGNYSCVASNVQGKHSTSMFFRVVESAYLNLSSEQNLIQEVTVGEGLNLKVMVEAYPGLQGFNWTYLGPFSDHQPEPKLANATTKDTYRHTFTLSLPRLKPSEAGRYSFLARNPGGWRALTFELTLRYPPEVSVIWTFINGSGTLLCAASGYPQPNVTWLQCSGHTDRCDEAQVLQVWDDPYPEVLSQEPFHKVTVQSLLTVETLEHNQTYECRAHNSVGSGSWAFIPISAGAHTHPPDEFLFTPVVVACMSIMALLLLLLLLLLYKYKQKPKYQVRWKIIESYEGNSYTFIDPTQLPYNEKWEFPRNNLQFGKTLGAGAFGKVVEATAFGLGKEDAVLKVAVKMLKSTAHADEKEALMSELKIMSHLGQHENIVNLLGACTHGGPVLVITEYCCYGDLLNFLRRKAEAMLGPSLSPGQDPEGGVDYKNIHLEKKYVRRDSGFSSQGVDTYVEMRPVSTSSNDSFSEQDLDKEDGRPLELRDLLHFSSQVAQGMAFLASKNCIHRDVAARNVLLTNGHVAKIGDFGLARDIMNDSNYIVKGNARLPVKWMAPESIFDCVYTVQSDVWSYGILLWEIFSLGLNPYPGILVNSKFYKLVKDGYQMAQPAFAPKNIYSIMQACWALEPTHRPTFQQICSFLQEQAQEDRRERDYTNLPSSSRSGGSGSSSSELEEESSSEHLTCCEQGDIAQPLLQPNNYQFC
Experiment [1] relates to Phospho-KIT (Y703) in M07e cells. Description: Phospho-KIT (Y703) cellular assay in M07e cells. Type of experiment: cell-based. The settings on record: M-07e; M07e cells; read-out: Phospho-KIT (Y703) cellular IC50. The method in brief:
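Serum-starved M07e cells preincubated 50 min at 37° C with 11-point half-log compound titration, then stimulated 10 min with SCF at 90.9 ng/mL final. Fixed, permeabilized cells stained for phospho-KIT Y703 and read by flow cytometry (live-gated geometric mean); IC50 by 4-parameter fit normalized to DMSO and positive control.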

Structures are written as SMILES.

One may read the IC50 as the point on the concentration scale where inhibition reaches its midpoint.

Chain of c-Kit (P10721 26-976): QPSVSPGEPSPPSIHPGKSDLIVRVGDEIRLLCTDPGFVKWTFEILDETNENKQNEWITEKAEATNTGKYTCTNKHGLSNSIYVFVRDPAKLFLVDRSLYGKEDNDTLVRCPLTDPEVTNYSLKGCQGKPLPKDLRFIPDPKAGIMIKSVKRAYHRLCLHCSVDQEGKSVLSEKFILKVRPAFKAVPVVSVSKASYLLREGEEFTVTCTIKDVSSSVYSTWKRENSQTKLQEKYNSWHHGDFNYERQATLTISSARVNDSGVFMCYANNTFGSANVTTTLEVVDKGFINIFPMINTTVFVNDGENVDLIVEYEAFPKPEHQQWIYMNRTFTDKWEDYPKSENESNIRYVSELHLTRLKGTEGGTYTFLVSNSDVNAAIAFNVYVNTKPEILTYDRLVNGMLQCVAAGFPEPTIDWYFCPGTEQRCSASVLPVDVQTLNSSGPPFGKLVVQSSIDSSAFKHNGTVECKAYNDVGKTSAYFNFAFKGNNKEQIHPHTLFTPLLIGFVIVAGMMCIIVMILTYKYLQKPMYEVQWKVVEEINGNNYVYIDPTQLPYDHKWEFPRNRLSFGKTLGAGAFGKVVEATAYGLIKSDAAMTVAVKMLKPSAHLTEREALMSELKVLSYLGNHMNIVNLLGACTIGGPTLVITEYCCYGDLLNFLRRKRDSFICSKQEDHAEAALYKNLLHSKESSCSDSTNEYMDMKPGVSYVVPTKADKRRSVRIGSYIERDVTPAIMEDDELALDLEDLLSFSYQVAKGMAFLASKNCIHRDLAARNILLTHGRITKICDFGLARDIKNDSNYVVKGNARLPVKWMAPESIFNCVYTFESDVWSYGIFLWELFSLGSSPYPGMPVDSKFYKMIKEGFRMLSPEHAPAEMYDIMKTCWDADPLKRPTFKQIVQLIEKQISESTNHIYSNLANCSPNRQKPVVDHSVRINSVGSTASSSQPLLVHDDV
Chain of PDGFRα (P16234 24-1089): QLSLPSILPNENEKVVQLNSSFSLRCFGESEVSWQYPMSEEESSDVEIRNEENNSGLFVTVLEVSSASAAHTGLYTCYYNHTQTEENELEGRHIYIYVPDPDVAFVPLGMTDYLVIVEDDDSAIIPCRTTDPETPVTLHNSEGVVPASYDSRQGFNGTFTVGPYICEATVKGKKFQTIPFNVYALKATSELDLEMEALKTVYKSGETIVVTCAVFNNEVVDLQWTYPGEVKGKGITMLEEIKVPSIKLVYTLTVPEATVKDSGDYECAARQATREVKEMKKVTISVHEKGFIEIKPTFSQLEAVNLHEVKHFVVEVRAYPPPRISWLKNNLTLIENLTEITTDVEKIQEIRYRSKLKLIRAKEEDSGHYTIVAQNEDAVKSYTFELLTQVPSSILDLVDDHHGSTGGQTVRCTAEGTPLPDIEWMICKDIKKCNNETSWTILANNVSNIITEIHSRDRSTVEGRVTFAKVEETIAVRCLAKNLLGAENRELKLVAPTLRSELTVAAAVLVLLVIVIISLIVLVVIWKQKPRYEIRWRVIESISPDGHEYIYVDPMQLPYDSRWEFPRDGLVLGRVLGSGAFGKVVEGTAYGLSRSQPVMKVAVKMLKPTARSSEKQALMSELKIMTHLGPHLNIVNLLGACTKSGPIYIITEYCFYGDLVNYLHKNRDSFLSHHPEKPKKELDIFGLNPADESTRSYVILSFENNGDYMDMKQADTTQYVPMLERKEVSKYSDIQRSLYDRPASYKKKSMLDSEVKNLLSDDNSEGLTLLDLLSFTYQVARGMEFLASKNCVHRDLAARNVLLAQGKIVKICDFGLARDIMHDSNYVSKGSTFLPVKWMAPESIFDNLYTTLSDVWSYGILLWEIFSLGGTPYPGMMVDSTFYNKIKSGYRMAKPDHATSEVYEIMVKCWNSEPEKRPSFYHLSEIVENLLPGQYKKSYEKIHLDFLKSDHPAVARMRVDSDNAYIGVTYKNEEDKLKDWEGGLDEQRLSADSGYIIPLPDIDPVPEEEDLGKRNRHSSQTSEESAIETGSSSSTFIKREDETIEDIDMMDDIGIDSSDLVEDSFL

`Cc1ncc(C(=O)Nc2cc(C(=O)NCc3ccc(F)c(F)c3)c(F)cc2C)s1` [Example 266, N-[5-[(3,4-difluorophenyl)methylcarbamoyl]-4-fluoro-2-methylphenyl]-2-methyl-1,3-thiazole-5-carboxamide]: the 50% inhibitory concentration (IC50) on c-Kit is less than 100 nM; against PDGFRα, greater than 1000 nM; at PDGFRβ, greater than 1000 nM; against CSF1R it was greater than 1000 nM; in experiment [1] it was less than 100 nM.
Consider `Cc1ncc(C(=O)Nc2cc(C(=O)NCc3ccc(OC(F)(F)F)cc3)c(F)cc2C)s1` [Example 267, N-[4-fluoro-2-methyl-5-[[4-(trifluoromethoxy)phenyl]methylcarbamoyl]phenyl]-2-methyl-1,3-thiazole-5-carboxamide], for which the IC50 was 100 to 1000 nM at c-Kit; greater than 1000 nM on PDGFRα; greater than 1000 nM on PDGFRβ; greater than 1000 nM at CSF1R; less than 100 nM in experiment [1].
In the case of `Cc1ncc(C(=O)Nc2cc(C(=O)NCc3ccc(C(F)(F)F)cc3)c(F)cc2C)s1` [Example 268, N-[4-fluoro-2-methyl-5-[[4-(trifluoromethyl)phenyl]methylcarbamoyl]phenyl]-2-methyl-1,3-thiazole-5-carboxamide], the IC50 at c-Kit was less than 100 nM; at PDGFRα, greater than 1000 nM; against PDGFRβ, greater than 1000 nM; against CSF1R it was greater than 1000 nM; in experiment [1] it was less than 100 nM.
Consider `Cc1ncc(C(=O)Nc2cc(C(=O)NCc3ccc(OC(F)(F)F)c(F)c3)c(F)cc2C)s1` [Example 269, N-[4-fluoro-5-[[3-fluoro-4-(trifluoromethoxy)phenyl]methylcarbamoyl]-2-methylphenyl]-2-methyl-1,3-thiazole-5-carboxamide], for which the IC50 was 100 to 1000 nM at c-Kit; greater than 1000 nM against PDGFRα; greater than 1000 nM at PDGFRβ; greater than 1000 nM on CSF1R; less than 100 nM in experiment [1].
Take `Cc1ncc(C(=O)Nc2cc(C(=O)NCc3ccc(OC(F)(F)F)cc3F)c(F)cc2C)s1` [Example 270]: the IC50 was 100 to 1000 nM against c-Kit; greater than 1000 nM at PDGFRα; greater than 1000 nM against PDGFRβ; greater than 1000 nM against CSF1R; 100 to 1000 nM in experiment [1].
